Consider one compound from PMC2680961, “Homologous desensitization of signalling by the alpha (α) isoform of the human thromboxane A2 receptor: A specific role for nitric oxide signalling” (Biochimica et Biophysica Acta, 2007).

For this assay, the target named is T1, TPα (Homo sapiens, UniProt P21731).
T1 construct: expressed in transfected cells
T1 sequence (P21731 1-343): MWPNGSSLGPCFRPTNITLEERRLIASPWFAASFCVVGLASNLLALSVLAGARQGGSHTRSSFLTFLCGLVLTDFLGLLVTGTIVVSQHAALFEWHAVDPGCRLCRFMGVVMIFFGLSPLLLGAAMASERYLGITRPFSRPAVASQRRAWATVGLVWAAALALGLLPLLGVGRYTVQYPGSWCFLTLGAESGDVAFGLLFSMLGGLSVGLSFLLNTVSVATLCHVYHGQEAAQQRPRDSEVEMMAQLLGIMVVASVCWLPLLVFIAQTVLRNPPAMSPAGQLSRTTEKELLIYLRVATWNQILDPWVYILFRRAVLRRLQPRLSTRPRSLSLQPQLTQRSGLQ
In words: IP3 generation, HEK.TPα cells. The assay is classed as cell-based. The following applies: 1 μM U46619 2 min, washout, restimulation at 60 min. Here is the method:
Intracellular IP3 levels were measured as previously described [[33,43]]. Briefly, cells were harvested by scraping, washed twice in ice-cold PBS and resuspended at approximately 2 × 10^6 cells/200 μl in HEPES-buffered saline (HBS; […], 4.7 mM KCl, 2.2 mM CaCl2, 1.2 mM KH2PO4, 11 mM glucose, 15 mM HEPES–NaOH, pH 7.4), 10 mM LiCl (Walsh et al., 2000). […] Thereafter, cells were stimulated with 1 μM U46619 at 37 °C for 2 min. To assess agonist-mediated homologous desensitization, cells (2 × 10^6 cells/200 μl) were stimulated with 1 μM U46619 at 37 °C for 2 min (Primary stimulation); thereafter, cells were collected by centrifugation (900×g, 5 min); were washed once in 200 μl HBS, 10 mM LiCl and finally resuspended in 200 μl HBS, 10 mM LiCl and were left to recover for 60 min; thereafter, cells were re-stimulated with 1 μM U46619 at 37 °C for 2 min (secondary stimulation). All ligands and […] were pre-diluted in HBS such that 50 μl added to 200 μl of cell suspension in HBS gave the desired final concentration. To determine basal IP3 levels, an equivalent volume (50 μl) of the vehicle HBS was added instead of ligand. The level of IP3 produced was quantified by radio competition assay essentially as described. […]

Consider `CCCCC[C@H](O)/C=C/[C@@H]1[C@@H](C/C=C\CCCC(=O)O)[C@H]2CO[C@@H]1C2` [U46619], for which the “IP3 generation following secondary restimulation after U46619 pre-incubation” value is recorded as “almost completely inhibited IP3 generation”.
